Biological target: Human GPR35 (Homo sapiens, UniProt Q9HC97, S294R)
Assay: Alternative Beta-Arrestin Assay (JumpIn 294R Tango U2OS cells, LiveBLAzer-FRET B/G)
Assay type: cell-based
Conditions: for EC50: Human GPR35 expressing JumpIn 294R Tango U2OS cells, 5 hours treatment
Method: Human GPR35 expressing JumpIn (Thermo Fisher) 294R Tango U2OS cells were plated in 384-well format in clear bottom plates at a cell density of 10,000 cells/well and allowed to grow overnight. The next day, cells were treated with serially diluted test compounds for 5 hours. LiveBLAzer-FRET B/G (CCF4-AM) detection reagents were then added and cells were allowed to incubate for 2 hours before reading plates on a BioTek Cytation 5 plate reader. Zaprinast was used as a positive control for dose-response curves. In order to determine EC50 values, data w ere fit to a four-parameter dose-response curves.

Human GPR35, sequence (Q9HC97 whole entry S294R): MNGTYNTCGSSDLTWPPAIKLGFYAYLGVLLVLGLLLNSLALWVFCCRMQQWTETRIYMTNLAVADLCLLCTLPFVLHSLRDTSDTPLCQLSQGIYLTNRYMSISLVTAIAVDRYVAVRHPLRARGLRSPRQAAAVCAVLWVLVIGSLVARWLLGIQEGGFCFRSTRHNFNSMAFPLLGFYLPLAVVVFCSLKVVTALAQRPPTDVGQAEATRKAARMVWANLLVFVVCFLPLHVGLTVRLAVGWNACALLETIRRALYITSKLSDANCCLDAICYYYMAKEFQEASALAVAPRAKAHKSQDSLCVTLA

Row | Structure (SMILES) | EC50 [µM] | % inhibition at 50 μM (at 50 μM, Table 2) [% inhibition at]
1 | CCOc1cc(-c2cccc(CC(C)C(=O)O)c2)ccc1-c1nc2[nH]nnc2c(=O)[nH]1 (single isomer, unassigned) [Compound 311, 3-(3′-ethoxy-4′-(7-oxo-6,7-dihydro-3H-[1,2,3]triazolo[4,5-d]pyrimidin-5-yl)-[1,1′-biphenyl]-3-yl)-2-methylpropanoic acid] | ≤ 10 | –
2 | CCOc1cc(-c2nc3[nH]nnc3c(=O)[nH]2)ccc1-c1cccc(OCC(=O)O)c1 [Compound 217, 2-((2′-Ethoxy-4′-(7-oxo-6,7-dihydro-3H-[1,2,3]triazolo[4,5-d]pyrimidin-5-yl)-[1,1′-biphenyl]-3-yl)oxy)acetic acid] | ≤ 10 | –
3 | CCOc1cc(-c2ccc(OCc3ccc(OC)cc3)c(NCC(=O)OC(C)(C)C)c2)ccc1-c1nc2[nH]nnc2c(=O)[nH]1 [Compound 221, tert-butyl (3′-ethoxy-4-((4-methoxybenzyl)oxy)-4′-(7-oxo-6,7-dihydro-3H-[1,2,3]triazolo[4,5-d]pyrimidin-5-yl)-[1,1′-biphenyl]-3-yl)glycinate] | – | 57
4 | O=c1[nH]c(-c2ccc(-c3nnn[nH]3)cc2O)nc2[nH]nnc12 [Compound 147, 5-(2-hydroxy-4-(1H-tetrazol-5-yl)phenyl)-3,6-dihydro-7H-[1,2,3]triazolo[4,5-d]pyrimidin-7-one] | ≤ 10 | –
5 | CCOc1cc(-c2cccc(C[C@H](NC(C)=O)C(=O)O)c2)ccc1-c1nc2[nH]nnc2c(=O)[nH]1 [Compound 293, (S)-2-acetamido-3-(3′-ethoxy-4′-(7-oxo-6,7-dihydro-3H-[1,2,3]triazolo[4,5-d]pyrimidin-5-yl)-[1,1′-biphenyl]-3-yl)propanoic acid] | ≤ 10 | –
6 | CCOC(=O)C(C)c1cccc(-c2ccc(-c3nc4[nH]nnc4c(=O)[nH]3)c(OCC)c2)c1 (stereo not drawn) [Compound 296, ethyl 2-(3′-ethoxy-4′-(7-oxo-6,7-dihydro-3H-[1,2,3]triazolo[4,5-d]pyrimidin-5-yl)-[1,1′-biphenyl]-3-yl)propanoate] | ≤ 10 | –
7 | CCOc1cc(-c2cc(C)cc(C(=O)O)c2)ccc1-c1nc2[nH]nnc2c(=O)[nH]1 [Compound 185, 3′-ethoxy-5-methyl-4′-(7-oxo-6,7-dihydro-3H-[1,2,3]triazolo[4,5-d]pyrimidin-5-yl)-[1,1′-biphenyl]-3-carboxylic acid] | ≤ 10 | –
8 | CCOc1cc(-c2cc(O)cc(O[C@H](C)C(=O)O)c2)ccc1-c1nc2[nH]nnc2c(=O)[nH]1 (single isomer, unassigned) [Compound 255] | ≤ 10 | –
9 | O=C(O)c1ccc(-c2ccc(-c3nc4[nH]nnc4c(=O)[nH]3)c(OC3CCCC3)c2)cc1O [Compound 201, 3′-(Cyclopentyloxy)-3-hydroxy-4′-(7-oxo-6,7-dihydro-3H-[1,2,3]triazolo[4,5-d]pyrimidin-5-yl)-[1,1′-biphenyl]-4-carboxylic acid] | ≤ 10 | –
10 | CCOc1cc(-c2cccc(OC(C(=O)O)C(C)C)c2)ccc1-c1nc2[nH]nnc2c(=O)[nH]1 (stereo not drawn) [Compound 269, 2-((3′-ethoxy-4′-(7-oxo-6,7-dihydro-3H-[1,2,3]triazolo[4,5-d]pyrimidin-5-yl)-[1,1′-biphenyl]-3-yl)oxy)-3-methylbutanoic acid] | ≤ 10 | –
11 | CCOc1cc(-c2cc(OCC(=O)O)cc(C(=O)O)c2)ccc1-c1nc2[nH]nnc2c(=O)[nH]1 [Compound 219, 5-(Carboxymethoxy)-3′-ethoxy-4′-(7-oxo-6,7-dihydro-3H-[1,2,3]triazolo[4,5-d]pyrimidin-5-yl)-[1,1′-biphenyl]-3-carboxylic acid] | ≤ 10 | –
12 | CCOc1cc(-c2cccc(C[C@H](N)C(=O)O)c2)ccc1-c1nc2[nH]nnc2c(=O)[nH]1 [Compound 274, (S)-2-amino-3-(3′-ethoxy-4′-(7-oxo-6,7-dihydro-3H-[1,2,3]triazolo[4,5-d]pyrimidin-5-yl)-[1,1′-biphenyl]-3-yl)propanoic acid] | ≤ 10 | –
13 | CCOc1cc(-c2cccc(CC(=O)O)c2)ccc1-c1nc2[nH]nnc2c(=O)[nH]1 [Compound 295, 2-(3′-ethoxy-4′-(7-oxo-6,7-dihydro-3H-[1,2,3]triazolo[4,5-d]pyrimidin-5-yl)-[1,1′-biphenyl]-3-yl)acetic acid] | ≤ 10 | –
14 | CCOC(=O)COc1cccc(-c2ccc(-c3nc4[nH]nnc4c(=O)[nH]3)c(OCC)c2)c1 [Compound 120, Ethyl 2-((3′-ethoxy-4′-(7-oxo-6,7-dihydro-3H-[1,2,3]triazolo[4,5-d]pyrimidin-5-yl)-[1,1′-biphenyl]-3-yl)oxy)acetate] | ≤ 10 | –
15 | CCOc1cc(-c2cc(F)c(O)c(F)c2)ccc1-c1nc2[nH]nnc2c(=O)[nH]1 [Compound 203, 5-(3-Ethoxy-3′,5′-difluoro-4′-hydroxy-[1,1′-biphenyl]-4-yl)-3,6-dihydro-7H-[1,2,3]triazolo[4,5-d]pyrimidin-7-one] | ≤ 10 | –
16 | O=C(O)CNc1cccc(-c2ccc(-c3nc4[nH]nnc4c(=O)[nH]3)c(OCCN3CCCC3)c2)c1 [Compound 230, (4′-(7-Oxo-6,7-dihydro-3H-[1,2,3]triazolo[4,5-d]pyrimidin-5-yl)-3′-(2-(pyrrolidin-1-yl)ethoxy)-[1,1′-biphenyl]-3-yl)glycine] | 10 to 50 | –
17 | CC(Oc1cccc(-c2ccc(-c3nc4[nH]nnc4c(=O)[nH]3)c(OC3CCCC3)c2)c1)C(=O)O (stereo not drawn) [Compound 250, 2-((3′-(cyclopentyloxy)-4′-(7-oxo-6,7-dihydro-3H-[1,2,3]triazolo[4,5-d]pyrimidin-5-yl)-[1,1′-biphenyl]-3-yl)oxy)propanoic acid] | ≤ 10 | –
18 | CCOc1cc(-c2nc(C(=O)O)co2)ccc1-c1nc2[nH]nnc2c(=O)[nH]1 [Compound 188, 2-(3-ethoxy-4-(7-oxo-6,7-dihydro-3H-[1,2,3]triazolo[4,5-d]pyrimidin-5-yl)phenyl)oxazole-4-carboxylic acid] | ≤ 10 | –
19 | CCOc1cc(-c2ccc(OCCN3CCCC3)c(CC(C)C(=O)O)c2)ccc1-c1nc2[nH]nnc2c(=O)[nH]1 (stereo not drawn) [Compound 300, 3-(3′-ethoxy-4′-(7-oxo-6,7-dihydro-3H-[1,2,3]triazolo[4,5-d]pyrimidin-5-yl)-4-(2-(pyrrolidin-1-yl)ethoxy)-[1,1′-biphenyl]-3-yl)-2-methylpropanoic acid] | ≤ 10 | –
20 | O=c1[nH]c(-c2ccc(-c3ccc(-c4nnn[nH]4)cc3)cc2OC2CCCC2)nc2[nH]nnc12 [Compound 273, 5-(3-(cyclopentyloxy)-4′-(1H-tetrazol-5-yl)-[1,1′-biphenyl]-4-yl)-3,6-dihydro-7H-[1,2,3]triazolo[4,5-d]pyrimidin-7-one] | ≤ 10 | –
21 | CCOc1cc(-c2ccc(C)c(CCC(=O)O)c2)ccc1-c1nc2[nH]nnc2c(=O)[nH]1 [Compound 321, 3-(3′-ethoxy-4-methyl-4′-(7-oxo-6,7-dihydro-3H-[1,2,3]triazolo[4,5-d]pyrimidin-5-yl)-[1,1′-biphenyl]-3-yl)propanoic acid] | ≤ 10 | –
22 | O=C(O)c1ccc(-c2ccc(-c3nc4[nH]nnc4c(=O)[nH]3)cc2NC2CCCCC2)cc1 [Compound 289, 2′-(cyclohexylamino)-4′-(7-oxo-6,7-dihydro-3H-[1,2,3]triazolo[4,5-d]pyrimidin-5-yl)-[1,1′-biphenyl]-4-carboxylic acid] | ≤ 10 | –
23 | CCOc1cc(-c2cccc([C@H]3C[C@H]3C(=O)O)c2)ccc1-c1nc2[nH]nnc2c(=O)[nH]1 (single isomer, unassigned) [Compound 308, cis-2-(3′-ethoxy-4′-(7-oxo-6,7-dihydro-3H-[1,2,3]triazolo[4,5-d]pyrimidin-5-yl)-[1,1′-biphenyl]-3-yl)cyclopropane-1-carboxylic acid] | ≤ 10 | –
24 | CCOc1cc(-c2ccc(OC)c(CC(C)C(=O)O)c2)ccc1-c1nc2[nH]nnc2c(=O)[nH]1 (stereo not drawn) [Compound 316, 3-(3′-ethoxy-4-methoxy-4′-(7-oxo-6,7-dihydro-3H-[1,2,3]triazolo[4,5-d]pyrimidin-5-yl)-[1,1′-biphenyl]-3-yl)-2-methylpropanoic acid] | ≤ 10 | –
25 | CCOc1cc(-c2cccc([C@H]3C[C@@H]3C(=O)O)c2)ccc1-c1nc2[nH]nnc2c(=O)[nH]1 (racemic) [Compound 277, rac-trans-2-(3′-ethoxy-4′-(7-oxo-6,7-dihydro-3H-[1,2,3]triazolo[4,5-d]pyrimidin-5-yl)-[1,1′-biphenyl]-3-yl)cyclopropane-1-carboxylic acid] | ≤ 10 | –
26 | CCOc1cc(-c2ccc(OC(C)C)c(CC(C)C(=O)O)c2)ccc1-c1nc2[nH]nnc2c(=O)[nH]1 (single isomer, unassigned) [Compound 313, 3-(3′-ethoxy-4-isopropoxy-4′-(7-oxo-6,7-dihydro-3H-[1,2,3]triazolo[4,5-d]pyrimidin-5-yl)-[1,1′-biphenyl]-3-yl)-2-methylpropanoic acid] | ≤ 10 | –
27 | CCOc1cc(-c2ccc(C(=O)O)c(O)c2)ccc1-c1nc2[nH]nnc2c(=O)[nH]1 [Compound 208, 3′-Ethoxy-3-hydroxy-4′-(7-oxo-6,7-dihydro-3H-[1,2,3]triazolo[4,5-d]pyrimidin-5-yl)-[1,1′-biphenyl]-4-carboxylic acid] | ≤ 10 | –
28 | CCOc1cc(-c2cc(C(=O)O)n(C)c2)ccc1-c1nc2[nH]nnc2c(=O)[nH]1 [Compound 192, 4-(3-ethoxy-4-(7-oxo-6,7-dihydro-3H-[1,2,3]triazolo[4,5-d]pyrimidin-5-yl)phenyl)-1-methyl-1H-pyrrole-2-carboxylic acid] | ≤ 10 | –
29 | CCOC(=O)c1ccc(-c2ccc(-c3nc4[nH]nnc4c(=O)[nH]3)c(OCC)c2)cc1 [Compound 191, ethyl 3′-ethoxy-4′-(7-oxo-6,7-dihydro-3H-[1,2,3]triazolo[4,5-d]pyrimidin-5-yl)-[1,1′-biphenyl]-4-carboxylate] | ≤ 10 | –
30 | CCOc1cc(-c2cccc(CC(C)C(=O)O)c2)ccc1-c1nc2[nH]nnc2c(=O)[nH]1 (stereo not drawn) [Compound 238, 3-(3′-ethoxy-4′-(7-oxo-6,7-dihydro-3H-[1,2,3]triazolo[4,5-d]pyrimidin-5-yl)-[1,1′-biphenyl]-3-yl)-2-methylpropanoic acid] | ≤ 10 | –

Source: patent US11053251B2, “GPR35 modulators” (Prometheus Biosciences, Inc., priority 2019, dated 2021)
